Assay results reported in patent publication US11236129B2, “IL-17A binding peptides and medical uses thereof” (Dompe' Farmaceutici S.P.A., priority 2018, dated 2022).
Residues, ends and D or L forms follow the SMILES beside them.

Biological target: IL-17RA/IL17RC dimerization induced by IL-17A (Homo sapiens, UniProt Q16552)
Assay: IL-17RA/IL17RC dimerization assay in response to IL-17A (PathHunter Cytokine Receptor Assay)
Format: cell-based
Conditions: IL-17A at EC80; read-out: IC50 in IL-17RA/IL7RC dimerization assay
Description: The peptides of Table 7 were tested for their ability to inhibit the binding of IL-17A to its receptor and the subsequent interaction of IL-17RA and IL17RC.
Interleukin receptor RA and RC dimerization assay (DiscoverX) was used to measure the interaction of the receptor chains IL-17RA and IL17RC upon activation by IL-17A in the absence or presence of the peptides of Table 7.
In the PathHunter® Cytokine Receptor Assay, one cytokine receptor chain is tagged with a small peptide epitope ProLink (PK) and the other chain is tagged with Enzyme Acceptor (EA). Ligand binding induces dimerization of the two receptors, facilitating complementation of PK and EA fragments. This interaction generates an active unit of b-galactosidase, which is detected using a chemiluminescent substrate. PathHunter cell lines were expanded from freezer stocks according to standard procedures. Cells were seeded in a total volume of 20 μL into white walled, 384-well microplates and incubated for the appropriate time prior to testing. For agonist activity inhibition, cells were incubated with sample to induce response. Intermediate dilution of sample stocks was performed to generate 5× sample in assay buffer. 5 μL of 5× sample was added to cells and incubated at 37° C. or room temperature for 60 minutes. Vehicle concentration was 1%. 5 μL of 6×EC80 agonist (IL-17A) in assay buffer was added to the cells and incubated at 37° C. for 6 to 16 hours depending on the assay. 1. […] For some assays, activity was detected using a high sensitivity detection reagent (PathHunter Flash Kit) to improve assay performance. In these assays, an equal volume of detection reagent (25 or 30 uL) was added to the wells, followed by a one hour incubation at room temperature. Microplates were read following signal generation with a PerkinElmer Envision™ instrument for chemiluminescent signal detection. Compound activity was analyzed using CBIS data analysis suite (ChemInnovation, CA). % Inhibition=100%×(1−(mean RLU of test sample−mean RLU of vehicle control)/(mean RLU of EC80 control−mean RLU of vehicle control)).

Chain of IL-17RA/IL17RC dimerization induced by IL-17A (Q16552 24-155): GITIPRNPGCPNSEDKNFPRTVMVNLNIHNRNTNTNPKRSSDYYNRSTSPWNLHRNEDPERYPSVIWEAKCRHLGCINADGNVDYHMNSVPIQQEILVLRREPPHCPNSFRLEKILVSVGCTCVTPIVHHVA

| SMILES | IC50 [nM] |
| --- | --- |
| CC(=O)N[C@H](C(=O)N[C@@H](Cc1c[nH]cn1)C(=O)N[C@@H](Cc1ccccc1)C(=O)N[C@@H](CCC(N)=O)C(=O)N[C@@H](Cc1ccccc1)C(=O)N1CCC[C@H]1C(=O)N[C@@H](CCC(N)=O)C(=O)N[C@@H](CC(=O)O)C(=O)N[C@@H](Cc1c[nH]c2ccccc12)C(=O)N[C@@H](Cc1c[nH]c2ccccc12)C(=O)N[C@@H](CCC(=O)O)C(=O)N[C@@H](Cc1c[nH]c2ccccc12)C(=O)N[C@@H](Cc1ccccc1)C(=O)N[C@@H](CCCNC(=N)N)C(=O)N[C@@H](CCCNC(=N)N)C(N)=O)C(C)C [SEQ ID NO: 141] (Ac-VHFQFPQDWWEWFRR-NH2) | < 500 |
| CC[C@H](C)[C@H](NC(=O)[C@@H](NC(=O)[C@H](Cc1ccccc1)NC(=O)[C@H](Cc1c[nH]cn1)NC(=O)[C@@H](NC(C)=O)C(C)C)[C@@H](C)O)C(=O)N1CCC[C@H]1C(=O)N[C@@H](C)C(=O)N[C@@H](CC(=O)O)C(=O)N[C@@H](Cc1ccccc1)C(=O)N[C@@H](Cc1c[nH]c2ccccc12)C(=O)N[C@@H](CCC(=O)O)C(=O)N[C@@H](Cc1c[nH]c2ccccc12)C(=O)N[C@@H](Cc1ccccc1)C(=O)N[C@@H](CCCNC(=N)N)C(=O)N[C@@H](CCCNC(=N)N)C(N)=O [SEQ ID NO: 142] (Ac-VHFTIPADFWEWFRR-NH2) | < 500 |
| CC[C@H](C)[C@H](NC(=O)[C@H](CCC(N)=O)NC(=O)[C@@H](NC(=O)[C@H](Cc1c[nH]cn1)NC(=O)[C@@H](NC(C)=O)C(C)C)C(C)C)C(=O)N1CCC[C@H]1C(=O)N[C@@H](C)C(=O)N[C@@H](CC(=O)O)C(=O)N[C@@H](Cc1ccccc1)C(=O)N[C@@H](Cc1c[nH]c2ccccc12)C(=O)N[C@@H](CCC(=O)O)C(=O)N[C@@H](Cc1c[nH]c2ccccc12)C(=O)N[C@@H](Cc1ccccc1)C(=O)N[C@@H](CCCNC(=N)N)C(=O)N[C@@H](CCCNC(=N)N)C(N)=O [SEQ ID NO: 143] (Ac-VHVQIPADFWEWFRR-NH2) | < 500 |
| CC(=O)N[C@H](C(=O)N[C@@H](Cc1c[nH]cn1)C(=O)N[C@H](C(=O)N[C@H](C(=O)N[C@@H](Cc1ccccc1)C(=O)N1CCC[C@H]1C(=O)N[C@@H](C)C(=O)N[C@@H](CC(=O)O)C(=O)N[C@@H](CC(C)C)C(=O)N[C@@H](Cc1c[nH]c2ccccc12)C(=O)N[C@@H](CCC(=O)O)C(=O)N[C@@H](Cc1c[nH]c2ccccc12)C(=O)N[C@@H](Cc1ccccc1)C(=O)N[C@@H](CCCNC(=N)N)C(=O)N[C@@H](CCCNC(=N)N)C(N)=O)[C@@H](C)O)C(C)C)C(C)C [SEQ ID NO: 144] (Ac-VHVTFPADLWEWFRR-NH2) | < 500 |
| CC[C@H](C)[C@H](NC(=O)[C@@H](NC(=O)[C@@H](NC(=O)[C@H](Cc1c[nH]cn1)NC(=O)[C@@H](NC(C)=O)C(C)C)C(C)C)[C@@H](C)O)C(=O)N1CCC[C@H]1C(=O)N[C@@H](CCC(N)=O)C(=O)N[C@@H](CC(=O)O)C(=O)N[C@@H](Cc1ccccc1)C(=O)N[C@@H](Cc1c[nH]c2ccccc12)C(=O)N[C@@H](CCC(=O)O)C(=O)N[C@@H](Cc1c[nH]c2ccccc12)C(=O)N[C@@H](Cc1ccccc1)C(=O)N[C@@H](CCCNC(=N)N)C(=O)N[C@@H](CCCNC(=N)N)C(N)=O [SEQ ID NO: 145] (Ac-VHVTIPQDFWEWFRR-NH2) | < 500 |
| CC[C@H](C)[C@H](NC(=O)[C@@H](NC(=O)[C@H](Cc1ccccc1)NC(=O)[C@H](Cc1c[nH]cn1)NC(=O)[C@@H](NC(C)=O)C(C)C)[C@@H](C)O)C(=O)N1CCC[C@H]1C(=O)N[C@@H](CCC(N)=O)C(=O)N[C@@H](CC(=O)O)C(=O)N[C@@H](Cc1c[nH]c2ccccc12)C(=O)N[C@@H](Cc1c[nH]c2ccccc12)C(=O)N[C@@H](CCC(=O)O)C(=O)N[C@@H](Cc1c[nH]c2ccccc12)C(=O)N[C@H](C(=O)N[C@@H](CCCNC(=N)N)C(=O)N[C@@H](CCCNC(=N)N)C(N)=O)C(C)C [SEQ ID NO: 146] (Ac-VHFTIPQDWWEWVRR-NH2) | < 500 |
| CC(=O)N[C@H](C(=O)N[C@@H](Cc1c[nH]cn1)C(=O)N[C@@H](Cc1ccccc1)C(=O)N[C@H](C(=O)N[C@@H](Cc1ccccc1)C(=O)N1CCC[C@H]1C(=O)N[C@@H](CCC(N)=O)C(=O)N[C@@H](CC(=O)O)C(=O)N[C@@H](CC(C)C)C(=O)N[C@@H](Cc1ccc(O)cc1)C(=O)N[C@@H](CC(N)=O)C(=O)N[C@@H](Cc1c[nH]c2ccccc12)C(=O)N[C@H](C(=O)N[C@@H](CCCNC(=N)N)C(=O)N[C@@H](CCCNC(=N)N)C(N)=O)C(C)C)[C@@H](C)O)C(C)C [SEQ ID NO: 147] (Ac-VHFTFPQDLYNWVRR-NH2) | < 500 |
| CC(=O)N[C@H](C(=O)N[C@@H](Cc1c[nH]cn1)C(=O)N[C@@H](Cc1ccccc1)C(=O)N[C@H](C(=O)N[C@@H](Cc1ccccc1)C(=O)N1CCC[C@H]1C(=O)N[C@@H](CCC(N)=O)C(=O)N[C@@H](CC(=O)O)C(=O)N[C@@H](CC(C)C)C(=O)N[C@@H](Cc1ccc(O)cc1)C(=O)N[C@@H](CC(N)=O)C(=O)N[C@@H](Cc1ccccc1)C(=O)N[C@H](C(=O)N[C@@H](CCCNC(=N)N)C(=O)N[C@@H](CCCNC(=N)N)C(N)=O)C(C)C)[C@@H](C)O)C(C)C [SEQ ID NO: 148] (Ac-VHFTFPQDLYNFVRR-NH2) | < 500 |
| CC[C@H](C)[C@H](NC(=O)[C@@H](NC(=O)[C@@H](NC(=O)[C@H](Cc1c[nH]cn1)NC(=O)[C@@H](NC(C)=O)C(C)C)C(C)C)[C@@H](C)O)C(=O)N1CCC[C@H]1C(=O)N[C@@H](C)C(=O)N[C@@H](CC(=O)O)C(=O)N[C@@H](CC(C)C)C(=O)N[C@@H](Cc1ccc(O)cc1)C(=O)N[C@@H](CC(N)=O)C(=O)N[C@@H](Cc1ccccc1)C(=O)N[C@@H](Cc1ccccc1)C(=O)N[C@@H](CCCNC(=N)N)C(=O)N[C@@H](CCCNC(=N)N)C(N)=O [SEQ ID NO: 149] (Ac-VHVTIPADLYNFFRR-NH2) | < 500 |
| CC(=O)N[C@H](C(=O)N[C@@H](Cc1c[nH]cn1)C(=O)N[C@@H](Cc1ccccc1)C(=O)N[C@@H](CCC(N)=O)C(=O)N[C@@H](Cc1ccccc1)C(=O)N1CCC[C@H]1C(=O)N[C@@H](CCC(N)=O)C(=O)N[C@@H](CC(=O)O)C(=O)N[C@@H](CC(C)C)C(=O)N[C@@H](Cc1c[nH]c2ccccc12)C(=O)N[C@@H](CCC(=O)O)C(=O)N[C@@H](Cc1c[nH]c2ccccc12)C(=O)N[C@H](C(=O)N[C@@H](CCCNC(=N)N)C(=O)N[C@@H](CCCNC(=N)N)C(N)=O)C(C)C)C(C)C [SEQ ID NO: 150] (Ac-VHFQFPQDLWEWVRR-NH2) | < 500 |
| CC[C@H](C)[C@H](NC(=O)[C@@H](NC(=O)[C@H](Cc1ccccc1)NC(=O)[C@H](Cc1c[nH]cn1)NC(=O)[C@@H](NC(C)=O)C(C)C)[C@@H](C)O)C(=O)N1CCC[C@H]1C(=O)N[C@@H](CCC(N)=O)C(=O)N[C@@H](CC(=O)O)C(=O)N[C@@H](CC(C)C)C(=O)N[C@@H](Cc1ccc(O)cc1)C(=O)N[C@@H](CC(N)=O)C(=O)N[C@@H](Cc1c[nH]c2ccccc12)C(=O)N[C@@H](CCCNC(=N)N)C(=O)N[C@@H](CCCNC(=N)N)C(N)=O [SEQ ID NO: 151] (Ac-VHFTIPQDLYNWRR-NH2) | < 500 |
| CC[C@H](C)[C@H](NC(=O)[C@@H](NC(=O)[C@H](Cc1ccccc1)NC(=O)[C@H](Cc1c[nH]cn1)NC(=O)[C@@H](NC(C)=O)C(C)C)[C@@H](C)O)C(=O)N1CCC[C@H]1C(=O)N[C@@H](C)C(=O)N[C@@H](CC(=O)O)C(=O)N[C@@H](CC(C)C)C(=O)N[C@@H](Cc1ccc(O)cc1)C(=O)N[C@@H](CC(N)=O)C(=O)N[C@@H](Cc1ccccc1)C(=O)N[C@H](C(=O)N[C@@H](CCCNC(=N)N)C(=O)N[C@@H](CCCNC(=N)N)C(N)=O)C(C)C [SEQ ID NO: 152] (Ac-VHFTIPADLYNFVRR-NH2) | < 500 |
| CC[C@H](C)[C@H](NC(=O)[C@H](CCC(N)=O)NC(=O)[C@H](Cc1ccccc1)NC(=O)[C@H](Cc1c[nH]cn1)NC(=O)[C@@H](NC(C)=O)C(C)C)C(=O)N1CCC[C@H]1C(=O)N[C@@H](CCC(N)=O)C(=O)N[C@@H](CC(=O)O)C(=O)N[C@@H](CC(C)C)C(=O)N[C@@H](Cc1ccc(O)cc1)C(=O)N[C@@H](CC(N)=O)C(=O)N[C@@H](Cc1ccccc1)C(=O)N[C@@H](Cc1ccccc1)C(=O)N[C@@H](CCCNC(=N)N)C(=O)N[C@@H](CCCNC(=N)N)C(N)=O [SEQ ID NO: 153] (Ac-VHFQIPQDLYNFFRR-NH2) | < 500 |
| CC(=O)N[C@H](C(=O)N[C@@H](Cc1c[nH]cn1)C(=O)N[C@@H](Cc1ccccc1)C(=O)N[C@@H](CCC(N)=O)C(=O)N[C@@H](Cc1ccccc1)C(=O)N1CCC[C@H]1C(=O)N[C@@H](CCC(N)=O)C(=O)N[C@@H](CCC(=O)O)C(=O)N[C@@H](Cc1c[nH]c2ccccc12)C(=O)N[C@@H](Cc1ccc(O)cc1)C(=O)N[C@@H](CC(N)=O)C(=O)N[C@@H](Cc1c[nH]c2ccccc12)C(=O)N[C@@H](Cc1ccccc1)C(=O)N[C@@H](CCCNC(=N)N)C(=O)N[C@@H](CCCNC(=N)N)C(N)=O)C(C)C [SEQ ID NO: 154] (Ac-VHFQFPQEWYNWFRR-NH2) | < 500 |
